How the values were obtained:
[1] = system: rat adult subventricular zone central nervous system stem cell cultures; assay: Survival of adult SVZ CNS stem cell cultures with insulin and Dll4; format: cell-based
Procedure: (§1) As there was a tight correlation between the Notch survival pathway and Hes3, it was investigated as to whether Hes3 is a mediator of the Notch pro-survival signalling. It was determined that both insulin and Notch activation promote the survival of foetal and adult neural stem cell cultures and their effects are additive (Tables 8-9).

[2] = system: mouse fetal central nervous system stem cell cultures; assay: Survival of fetal CNS stem cell cultures with insulin and Dll4; format: cell-based
Procedure: as §1

[3] = system: cultures from Hes3 knock-out mice; assay: Survival of adult SVZ stem cell cultures, Hes3 knock-out mice; format: cell-based, mouse; conditions: Hes3 knock-out culture
Procedure: It was determined that adult mouse subventricular zone central nervous system stem cell cultures from wild-type mice respond to D114 by generating twenty-four times more cells, whereas cultures from Hes3 knock-out mice respond to D114 by generating only three times more cells. Thus, in adult mouse neural stem cell cultures, D114 greatly promotes the survival of wild-type cells (23.7±1.7 fold increase), whereas it only slightly stimulates Hes3 knock-out culture survival (2.9±0.2 fold increase).

[4] = system: murine E13.5 cortical stem cell cultures; assay: Real-time imaging of lineage, death events and cell cycle; format: cell-based, mouse; conditions: from 4 hours after plating, compared to controls
Procedure: FIGS. 1a-1f are a set of images showing that Notch ligands stimulate survival in CNS stem cell (CNS SC) cultures. FIG. 1a is a bar graph […] the effect of Notch activation by Jagged-1, Delta-4, or combination in the presence of FGF2 for 5 days on plating efficiency, colony size, and BrdU incorporation (following a 4 hour BrdU pulse), over control treatments (FGF2 alone) FIG. 1b is a graph showing lineage and death events in murine E13.5 cortical stem cell cultures in the presence of FGF2 or FGF2 and Delta-4 (“D4”), D114 inhibits cell death in real-time cell lineage experiments (“x” marks time of death). CNS stem cells from embryonic day 13.5 mouse cerebral cortex were plated following one passage and visualized in real-time for 36 hours (images were taken every 2 min). Lineage and death events are represented. Cells were cultured in a closed gas chamber at 37° C. and images of selected fields were taken every two minutes. FIG. 1c is a line graph showing accumulative real-time imaging representation of death even times over 36 hours in culture with or without Delta-4. […] Cell cycle durations for the first two divisions are shown. FIG. 1e is a bar graph showing Delta-4 treatment of CNS SC cultures replaced the requirement for insulin in the medium in a plating efficiency assay. […] In the graphs, data represent Means ±standard deviation (SD). […]

adult rats = assay: Intraventricular infusion in normal adult rats, BrdU labeled cells; format: in vivo, rat; conditions: for concentration in the pump at which maximal effects were achieved: constant FGF2 2.5 μg/ml
Procedure: In-vivo Experiments: All drugs were infused over one week using an Alzet osmotic pump (model 2001 delivering at a rate of 1 μl/hr for seven days). Briefly, an intracerebral cannula connected to the pump was inserted into the right lateral ventricle using the following stereotaxic coordinates: bregma AP +0, Lateral −1.5 mm dorso-ventral 3.3 mm. Animals received IP injection of the tracer BrdU (50 mg/kg) every 12 hours for 5 days beginning on day one post-operatively to label dividing cells.
Immuno-positive cells were analyzed by confocal microscopy counted using a non-biased system on slides obtained from homologous coronal slices containing the infarct of each animal at the position between +0.2 and −3.8 mm from the center of the bregma according to stereotaxic coordinates. Cells were enumerated in […] regions of interest, on both the ipsilateral and contralateral hemispheres (to cannula, or cannula and ischemic focus): subventricular zone (SVZ), corpus callosum and white matter and the peri-infarct cortex.
The effect of intraventricular administration of Delta-4 was studied in adult rats. As in other tissues, the numbers of stem cells in the adult CNS are precisely controlled. […] In vivo manipulations were designed to ask if Notch ligands can act alone or substantially alter the effect of FGF2 on the numbers of proliferating cells in the SVZ of the normal brain. Animals (N=5-6 per treatment) were fitted with a mini-osmotic pump administering artificial cerebrospinal fluid (ACSF, vehicle), FGF2, Delta-4, or a combination FGF2+Delta-4 for one week into the ventricles of three-month old rats. Animals were also given twice-daily injections of bromodeoxyuridine (BrdU) from post-op days two to six to label cells generated during this time window. Two groups of animals were analyzed at day 7 and day 45 relative to the initiation of protein delivery. Delta-4 doses were chosen to provide a roughly equal concentration in the rat adult cerebrospinal fluid as in the cell culture medium of our in vitro experiments.

p38 MAP kinase = p38 MAP kinase phosphorylation immunoblot in CNS stem cells; format: cell-based, mouse
Source text: A candidate was p38MAP kinase, known to act downstream of JAK in many cells including CNS stem cells. p38 kinase has been implicated both in differentiation and cell cycle regulation, and recently, inhibition of p38 kinase enabled the proliferation of adult mammalian […] (Engel et al., Genes Dev, 2005). Inhibition of JAK blocked CNTF induced phosphorylation of p38 (FIG. 2g).

Row | Compound | Cell # [1] | Cell # [2] | survival, fold increase in cells [3] [fold] | death events [4] | number of BrdU+ cells in SVZ, corpus callosum and cerebral cortex (adult rats; 45 days, relative to FGF2 treated animals) | concentration in the pump at which maximal effects were achieved (adult rats; contralateral site) [µg/mL] | number of proliferating cells / BrdU incorporation (adult rats; day 7, contralateral site) | number of BrdU labeled cells in SVZ, corpus callosum and cortex (adult rats; day 7, hemisphere ipsilateral to the cannula) | concentration in the pump at which maximal effects were achieved (adult rats; ipsilateral site) | phosphorylation of p38 MAP kinase at Thr180/Tyr182 (p38 MAP kinase)
1 | Delta-4: soluble Notch ligand Delta-4 (1389-D4) from R&D | High | High | 2.9±0.2 | very few death events were observed | increased number of BrdU+ cells | ~4.2 | induced significant increases in BrdU incorporation | increased the number of BrdU labeled cells | approximately 0.42 μg/ml | –
2 | CC(C)(C)c1nc2c3ccc(F)cc3c3c(=O)[nH]ccc3c2[nH]1 [JAK Inhibitor, 2-(1,1-Dimethylethyl)-9-fluoro-3,6-dihydro-7H-benz[h]-imidaz[4,5-f]isoquinolin-7-one] | – | – | – | – | – | – | – | – | – | reduced the levels of phosphorylation
